The experiment has as its target T1, Siglec5 (Homo sapiens, UniProt O15389, C36A).
T1 sequence (O15389 19-141 C36A): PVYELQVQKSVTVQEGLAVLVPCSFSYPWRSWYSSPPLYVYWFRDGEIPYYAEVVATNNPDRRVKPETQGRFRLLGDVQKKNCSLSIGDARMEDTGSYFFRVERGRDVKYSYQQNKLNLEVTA
Nature of the experiment: 2D 1H-15N HSQC NMR titration. The format is binding.

The term Kd denotes the free concentration of one partner at which half of the binding sites on the other are occupied at equilibrium, for simple one-to-one binding. Low readings indicate tighter binding, high ones weaker binding. Turning to `CC(=O)N[C@H]1[C@H]([C@H](O)[C@H](O)CO)OC(O)(C(=O)O)C[C@@H]1O` (mixture of isomers) [sialic acid], the Kd was more than 100 mM.

In turn, `CC(=O)N[C@H]1[C@H]([C@H](O)[C@H](O)CO)O[C@@](OC[C@H]2O[C@@H](O[C@H]3[C@H](O)[C@@H](O)C(O)O[C@@H]3CO)[C@H](O)[C@@H](O)[C@H]2O)(C(=O)O)C[C@@H]1O` (some centres unmarked) [6′-sialyllactose] showed a Kd of 31 ± 8 mM.
